# Columns and labels:
# transthyretin tetramer [1] = target: T1, transthyretin tetramer (Homo sapiens, UniProt P02766); test: Stabilization of transthyretin tetramer in serum ex vivo (Test Example 1; urea denaturation, electrophoresis and Western blotting); type: biochemical; set-up: from tissue; host or cells: human serum (blood of three middle-aged or older persons)
# Method: The white circles represent the ratios in the serums added with the glabridin. The black circles represent the ratios in the serums added with the medium-chain fatty acid triglyceride solution containing a hydrophobic licorice extract.
# Serums were obtained from blood taken from three middle-aged or older persons. The medium-chain fatty acid triglyceride solution containing a hydrophobic licorice extract and the glabridin that were obtained in Example 2 were added to each serum (added in such a manner that the amount of the glabridin was 0, 10, and 50 μM respectively). The resulting mixtures were incubated at 25° C. for 30 minutes, and then denatured with urea. Using these samples, the transthyretins (the tetramers and the monomers) in the blood were quantitated by electrophoresis and Western blotting. The stabilization effect was investigated using the ratio of the monomers to the tetramers (monomer/tetramer).
# transthyretin tetramer [2] = target: T1, transthyretin tetramer; settings: two molecules of glabridin per tetramer; cited from earlier work
smiles,measurement,setting,value
CC1(C)C=Cc2c(ccc3c2OC[C@@H](c2ccc(O)cc2O)C3)O1 [glabridin],ratio of the monomers to the tetramers (monomer/tetramer),"transthyretin tetramer [1]; serum from three middle-aged or older persons, glabridin added at concentrations up to 50 μM, 25° C. 30 minutes, then denatured with urea",did not change
same,stabilization effect of the transthyretin (decreasing the ratio of the monomers and increasing the tetramers),"transthyretin tetramer [1]; serum, added so that the amount of glabridin was 0, 10, 50 μM",not observed
same,effect on transthyretin tetramer and formation of amyloid fibrils,transthyretin tetramer [2],binding to and stabilizing a transthyretin tetramer
